We go through ten compounds from patent US12180193B2, “Accelerating fibrosarcoma protein degrading compounds and associated methods of use” (Arvinas Operations, Inc., priority 2020, dated 2024).

Usually DC50 stands for the concentration at which degradation of the target reaches its halfway point. One may read the Dmax as the largest share of the target that was removed. High values mean deep degradation, low ones shallow degradation.

One assay addresses T1, BRAF G466V (Homo sapiens, UniProt P15056, G466V).
T1 construct: expressed in transfected cells
The experiment in a line: Cellular assay of target protein degradation, T-Rex 293 cells stably transfected with HA-BRAF G466V (HA immunofluorescence, high content imaging). Format: cell-based. The procedure, abridged:
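Cells expressing doxycycline-induced (0.75 ng/mL) HA-BRAF G466V were treated with compound at 30 nM to 3 pM in 0.1% DMSO for 24 hours at 37° C. After fixation and permeabilization, HA was immunostained and quantified by high content imaging to derive DC50 and Dmax.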

The target of another assay is T2, BRAF V600E (Homo sapiens, UniProt P15056, V600E).
T2 construct: expressed in transfected cells
T2 sequence (P15056 whole entry V600E): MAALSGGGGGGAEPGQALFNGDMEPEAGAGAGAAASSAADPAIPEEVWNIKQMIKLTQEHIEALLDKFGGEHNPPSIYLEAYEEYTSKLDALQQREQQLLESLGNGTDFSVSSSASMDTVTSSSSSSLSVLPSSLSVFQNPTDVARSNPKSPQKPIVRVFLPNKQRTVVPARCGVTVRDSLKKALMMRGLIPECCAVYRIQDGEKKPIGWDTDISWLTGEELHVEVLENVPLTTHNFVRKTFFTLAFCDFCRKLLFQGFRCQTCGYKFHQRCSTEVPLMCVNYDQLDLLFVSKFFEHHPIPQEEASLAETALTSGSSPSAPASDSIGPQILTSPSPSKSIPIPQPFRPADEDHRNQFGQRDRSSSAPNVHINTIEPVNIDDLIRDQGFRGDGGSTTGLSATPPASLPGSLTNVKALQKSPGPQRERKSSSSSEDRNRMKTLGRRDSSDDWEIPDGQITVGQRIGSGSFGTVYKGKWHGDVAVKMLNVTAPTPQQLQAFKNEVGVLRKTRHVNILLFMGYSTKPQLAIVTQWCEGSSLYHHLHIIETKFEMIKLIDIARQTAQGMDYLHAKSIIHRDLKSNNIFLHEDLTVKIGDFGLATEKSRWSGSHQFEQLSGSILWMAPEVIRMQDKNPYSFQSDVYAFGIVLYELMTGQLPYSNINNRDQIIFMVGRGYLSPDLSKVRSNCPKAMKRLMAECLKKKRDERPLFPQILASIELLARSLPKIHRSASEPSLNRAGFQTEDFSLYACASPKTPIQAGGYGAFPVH
The experiment in a line: Cellular assay of target protein degradation, T-Rex 293 cells stably transfected with HA-BRAF_V600E (HA immunofluorescence, high content imaging). The class given is cell-based. The procedure, abridged:
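Doxycycline-induced (1 ng/mL) cells were treated 24 h at 37 °C with compound at 1 μM to 0.1 nM final in 0.1% DMSO. After fixation, permeabilization and blocking, anti-HA staining was imaged by high-content reading; DC50 and Dmax (% of control) were derived.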

[1] abbreviates: half maximal degradation, T-Rex 293 HA-BRAF G466V; read-out: BRaf G466V DC50.
Where [2] appears, read: maximum degradation observed, T-Rex 293 HA-BRAF G466V.
Where [3] appears, read: half maximal degradation, T-Rex 293 HA-BRAF V600E; read-out: BRaf V600E DC50.
The mark [4] stands for this setting: maximum degradation observed, T-Rex 293 HA-BRAF V600E.

Read-outs that look alike come from different tables or passages of the source.

T1 sequence (P15056 whole entry G466V): as the sequence (P15056 whole entry V600E) above, with G466V, E600V counted along it

Turning to `COc1cc(N2CCN(CC3CCN(c4ccc(-c5cnc6[nH]cc(C(=O)c7c(F)ccc(NS(=O)(=O)N8CC[C@@H](F)C8)c7F)c6c5)cc4)CC3)CC2)ccc1C(=O)NC1CCC(=O)NC1=O` (stereo partly drawn) [Compound 360, 4-(4-{[1-(4-{3-[2,6-difluoro-3-({[(3R)-3-fluoropyrrolidin-1-yl]sulfonyl}amino)benzoyl]-1H-pyrrolo[2,3-b]pyridin-5-yl}phenyl)piperidin-4-yl]methyl}piperazin-1-yl)-N-(2,6-dioxopiperidin-3-yl)-2-methoxybenzamide], the DC50 was 0.001 to 0.01 µM at BRAF G466V (setting [1]) and less than 0.005 µM at BRAF V600E (setting [3]). Besides, the Dmax on BRAF G466V (setting [2]) is more than 70%; at BRAF V600E (setting [4]), less than 35%.

With `COc1cc(N2CC3(CN(CCc4ccc(-c5cnc6[nH]cc(C(=O)c7c(F)ccc(NS(=O)(=O)N8CC[C@@H](F)C8)c7F)c6c5)cc4)C3)C2)ccc1C(=O)N[C@H]1CCC(=O)NC1=O` [Compound 361, 4-{6-[2-(4-{3-[2,6-difluoro-3-({[(3R)-3-fluoropyrrolidin-1-yl]sulfonyl}amino)benzoyl]-1H-pyrrolo[2,3-b]pyridin-5-yl}phenyl)ethyl]-2,6-diazaspiro[3.3]heptan-2-yl}-N-[(3S)-2,6-dioxopiperidin-3-yl]-2-methoxybenzamide], the DC50 at BRAF G466V (setting [1]) is 0.001 to 0.01 µM; at BRAF V600E (setting [3]), 0.005 to 0.05 µM. Besides, the Dmax on BRAF G466V (setting [2]) is more than 70%; at BRAF V600E (setting [4]), 35 to 70%.

With `COc1cc(N2CC3(CN(CCc4ccc(-c5cnc6[nH]cc(C(=O)c7c(F)ccc(NS(=O)(=O)N8CC[C@@H](F)C8)c7F)c6c5)cc4)C3)C2)ccc1C(=O)NC1CCC(=O)NC1=O` (stereo partly drawn) [Compound 362, 4-{6-[2-(4-{3-[2,6-difluoro-3-({[(3R)-3-fluoropyrrolidin-1-yl]sulfonyl}amino)benzoyl]-1H-pyrrolo[2,3-b]pyridin-5-yl}phenyl)ethyl]-2,6-diazaspiro[3.3]heptan-2-yl}-N-(2,6-dioxopiperidin-3-yl)-2-methoxybenzamide], the figures for the DC50 at BRAF G466V (setting [1]) and on BRAF V600E (setting [3]) were 0.001 to 0.01 µM and 0.005 to 0.05 µM, respectively. In addition, the Dmax at BRAF G466V (setting [2]) was more than 70%; at BRAF V600E (setting [4]), 35 to 70%.

Turning to `Nc1ccc(F)c(C(=O)c2c[nH]c3ncc(-c4ccc(N5CCC(CN6CC7(C6)CN(c6ccc(C(=O)N[C@H]8CCC(=O)NC8=O)c(F)c6)C7)CC5)cc4)cc23)c1F` [Compound 363, 4-{6-[(1-{4-[3-(3-amino-2,6-difluorobenzoyl)-1H-pyrrolo[2,3-b]pyridin-5-yl]phenyl}piperidin-4-yl)methyl]-2,6-diazaspiro[3.3]heptan-2-yl}-N-[(3S)-2,6-dioxopiperidin-3-yl]-2-fluorobenzamide], the DC50 on BRAF G466V (setting [1]) is more than 0.03 µM; on BRAF V600E (setting [3]) it was more than 0.5 µM.

As to `O=C1CCC(NC(=O)N2CCCc3c(C4CCN(CC5CCN(c6ccc(-c7cnc8[nH]cc(C(=O)c9c(F)ccc(NS(=O)(=O)N%10CC[C@@H](F)C%10)c9F)c8c7)cc6)CC5)CC4)ccnc32)C(=O)N1` (stereo partly drawn) [Compound 364, 5-(1-{[1-(4-{3-[2,6-difluoro-3-({[(3R)-3-fluoropyrrolidin-1-yl]sulfonyl}amino)benzoyl]-1H-pyrrolo[2,3-b]pyridin-5-yl}phenyl)piperidin-4-yl]methyl}piperidin-4-yl)-N-(2,6-dioxopiperidin-3-yl)-1,2,3,4-tetrahydro-1,8-naphthyridine-1-carboxamide], the Dmax at BRAF G466V (setting [2]) was more than 70%; at BRAF V600E (setting [4]), 35 to 70%. Moreover, the DC50 was in the range of 0.001 to 0.01 µM at BRAF G466V (read-out: BRaf G466V DC50; half maximal degradation, T-Rex 293 HA-BRAF G466V) and 0.005 to 0.05 µM on BRAF V600E (read-out: BRaf V600E DC50; half maximal degradation, T-Rex 293 HA-BRAF V600E).

In the case of `O=C1CCC(c2ccc(C3CCN(CC4CCN(c5ccc(-c6cnc7[nH]cc(C(=O)c8c(F)ccc(NS(=O)(=O)N9CC[C@@H](F)C9)c8F)c7c6)cc5)CC4)CC3)cn2)C(=O)N1` (stereo partly drawn) [Compound 365, (3R)-N-[3-(5-{4-[4-({4-[6-(2,6-dioxopiperidin-3-yl)pyridin-3-yl]piperidin-1-yl}methyl)piperidin-1-yl]phenyl}-1H-pyrrolo[2,3-b]pyridine-3-carbonyl)-2,4-difluorophenyl]-3-fluoropyrrolidine-1-sulfonamide], the DC50 on BRAF G466V (setting [1]) was 0.001 to 0.01 µM; at BRAF V600E (setting [3]) it was 0.005 to 0.05 µM. Further, the Dmax at BRAF G466V (setting [2]) and at BRAF V600E (setting [4]) was more than 70% each time.

On to `O=C1CC[C@H](NC(=O)N2CCCc3c(C4CCN(CC5CCN(c6ccc(-c7cnc8[nH]cc(C(=O)c9c(F)ccc(NS(=O)(=O)N%10CC[C@@H](F)C%10)c9F)c8c7)cc6)CC5)CC4)ccnc32)C(=O)N1` [Compound 366, 5-(1-{[1-(4-{3-[2,6-difluoro-3-({[(3R)-3-fluoropyrrolidin-1-yl]sulfonyl}amino)benzoyl]-1H-pyrrolo[2,3-b]pyridin-5-yl}phenyl)piperidin-4-yl]methyl}piperidin-4-yl)-N-[(3S)-2,6-dioxopiperidin-3-yl]-1,2,3,4-tetrahydro-1,8-naphthyridine-1-carboxamide], for which the figures for the DC50 on BRAF G466V (setting [1]) and at BRAF V600E (setting [3]) were 0.001 to 0.01 µM and 0.005 to 0.05 µM, respectively. Further, the figures for the Dmax at BRAF G466V (setting [2]) and at BRAF V600E (setting [4]) were more than 70% and 35 to 70%, respectively.

Regarding `O=C1CC[C@@H](NC(=O)N2CCCc3c(C4CCN(CC5CCN(c6ccc(-c7cnc8[nH]cc(C(=O)c9c(F)ccc(NS(=O)(=O)N%10CC[C@@H](F)C%10)c9F)c8c7)cc6)CC5)CC4)ccnc32)C(=O)N1` [Compound 367, 5-(1-{[1-(4-{3-[2,6-difluoro-3-({[(3R)-3-fluoropyrrolidin-1-yl]sulfonyl}amino)benzoyl]-1H-pyrrolo[2,3-b]pyridin-5-yl}phenyl)piperidin-4-yl]methyl}piperidin-4-yl)-N-[(3R)-2,6-dioxopiperidin-3-yl]-1,2,3,4-tetrahydro-1,8-naphthyridine-1-carboxamide], the DC50 was 0.001 to 0.01 µM on BRAF G466V (setting [1]) and more than 0.5 µM at BRAF V600E (setting [3]). For the same compound, on BRAF G466V (setting [2]), the Dmax is less than 35%.

In the case of `O=C1CCC(c2ccc(N3CC4(CN(CC5CCN(c6ccc(-c7cnc8[nH]cc(C(=O)c9c(F)ccc(NS(=O)(=O)N%10CC[C@@H](F)C%10)c9F)c8c7)cc6)CC5)C4)C3)cc2)C(=O)N1` (stereo partly drawn) [Compound 368, (3R)-N-[3-(5-{4-[4-({6-[4-(2,6-dioxopiperidin-3-yl)phenyl]-2,6-diazaspiro[3.3]heptan-2-yl}methyl)piperidin-1-yl]phenyl}-1H-pyrrolo[2,3-b]pyridine-3-carbonyl)-2,4-difluorophenyl]-3-fluoropyrrolidine-1-sulfonamide], the DC50 lay within 0.001 to 0.01 µM on BRAF G466V (setting [1]) and 0.005 to 0.05 µM at BRAF V600E (setting [3]). The Dmax on BRAF G466V (setting [2]) and on BRAF V600E (setting [4]) was 35 to 70% each time.

Consider `O=C1CC[C@H](NC(=O)N2CCCc3c(N4CCN(CC5CCN(c6ccc(-c7cnc8[nH]cc(C(=O)c9c(F)ccc(NS(=O)(=O)N%10CC[C@@H](F)C%10)c9F)c8c7)cc6)CC5)CC4)ccnc32)C(=O)N1` [Compound 369, 5-(4-{[1-(4-{3-[2,6-difluoro-3-({[(3R)-3-fluoropyrrolidin-1-yl]sulfonyl}amino)benzoyl]-1H-pyrrolo[2,3-b]pyridin-5-yl}phenyl)piperidin-4-yl]methyl}piperazin-1-yl)-N-[(3S)-2,6-dioxopiperidin-3-yl]-1,2,3,4-tetrahydro-1,8-naphthyridine-1-carboxamide], for which the DC50 at BRAF G466V (setting [1]) was 0.001 to 0.01 µM; on BRAF V600E (setting [3]), 0.005 to 0.05 µM. The values for the Dmax on BRAF G466V (setting [2]) and on BRAF V600E (setting [4]) were more than 70% and 35 to 70%, respectively.
